Where two headings read alike, the source gives them in different places.
Target: T1, F508del (Homo sapiens, UniProt P13569, DEL508-508)
T1 construct: expressed in transfected cells
Assay: Protocol 2: FRET membrane potential optical assay (VIPR), identification of correction compounds
Assay type: cell-based
Summary of the method: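 FRET read-out (CC2-DMPE donor, DiSBAC2(3) voltage-sensitive acceptor) of membrane depolarization on VIPR II. Corrector candidates incubated 16 hrs at 37° C. with NIH3T3 cells expressing F508del; temperature correction at 27° C. as positive control; stimulation by 10 μM forskolin, 20 μM genistein, chloride-free gluconate bath.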

[1] = F508del CFTR modulator activity, compounds of Table 1, read-out: EC30
[2] = Table 3, compounds of Table 1 as modulators of CFTR activity, protocol not stated

T1 sequence (P13569 with tags, fused parts or gaps DEL508-508): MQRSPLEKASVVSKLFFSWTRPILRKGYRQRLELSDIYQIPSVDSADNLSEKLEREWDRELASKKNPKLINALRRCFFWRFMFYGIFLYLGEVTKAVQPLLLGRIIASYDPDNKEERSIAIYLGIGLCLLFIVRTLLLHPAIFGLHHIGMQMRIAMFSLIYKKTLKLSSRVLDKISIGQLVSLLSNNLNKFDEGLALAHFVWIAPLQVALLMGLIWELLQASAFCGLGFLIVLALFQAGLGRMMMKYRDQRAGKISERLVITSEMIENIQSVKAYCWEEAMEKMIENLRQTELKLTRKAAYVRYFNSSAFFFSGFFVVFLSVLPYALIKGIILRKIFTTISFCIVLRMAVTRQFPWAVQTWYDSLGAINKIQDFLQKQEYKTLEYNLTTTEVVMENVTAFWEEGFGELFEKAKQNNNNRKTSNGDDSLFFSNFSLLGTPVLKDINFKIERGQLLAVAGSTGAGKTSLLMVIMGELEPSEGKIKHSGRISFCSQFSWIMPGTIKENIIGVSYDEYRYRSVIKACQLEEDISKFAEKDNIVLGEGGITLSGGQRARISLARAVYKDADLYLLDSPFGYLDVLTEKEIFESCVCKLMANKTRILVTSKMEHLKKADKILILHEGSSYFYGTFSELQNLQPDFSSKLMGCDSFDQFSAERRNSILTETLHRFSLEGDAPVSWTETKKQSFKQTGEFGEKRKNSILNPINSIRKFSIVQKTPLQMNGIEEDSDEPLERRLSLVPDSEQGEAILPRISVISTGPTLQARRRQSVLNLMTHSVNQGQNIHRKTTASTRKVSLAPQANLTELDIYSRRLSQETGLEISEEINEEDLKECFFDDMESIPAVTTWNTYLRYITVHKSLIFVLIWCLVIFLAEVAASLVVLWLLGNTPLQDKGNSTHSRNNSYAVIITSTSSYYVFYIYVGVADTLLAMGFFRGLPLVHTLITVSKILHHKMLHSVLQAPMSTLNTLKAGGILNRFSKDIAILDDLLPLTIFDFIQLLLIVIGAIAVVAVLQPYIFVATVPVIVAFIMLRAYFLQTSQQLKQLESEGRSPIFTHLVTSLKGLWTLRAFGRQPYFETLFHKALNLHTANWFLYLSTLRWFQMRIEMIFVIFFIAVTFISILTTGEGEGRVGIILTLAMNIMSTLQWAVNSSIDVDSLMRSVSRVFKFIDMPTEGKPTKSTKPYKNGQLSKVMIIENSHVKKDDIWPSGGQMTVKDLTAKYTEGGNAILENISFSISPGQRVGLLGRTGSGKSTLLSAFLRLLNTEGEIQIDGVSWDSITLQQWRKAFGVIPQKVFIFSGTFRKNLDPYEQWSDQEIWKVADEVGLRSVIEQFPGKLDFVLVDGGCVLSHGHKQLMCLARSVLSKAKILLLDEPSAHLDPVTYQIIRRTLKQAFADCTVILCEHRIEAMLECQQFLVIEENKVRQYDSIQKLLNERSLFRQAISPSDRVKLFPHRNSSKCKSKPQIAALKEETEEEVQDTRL

EC30 [1] [µM]	EC30 [2]	SMILES
< 3	–	CC1CN(c2ncccc2C(=O)NS(=O)(=O)c2cccc(N3CCC(Cc4ccccc4)CC3)n2)C(C)(C)C1 (stereo not shown) [Compound 2107, N—[[6-(4-benzyl-1-piperidyl)-2-pyridyl]sulfonyl]-2-(2,2,4-trimethylpyrrolidin-1-yl)pyridine-3-carboxamide]
–	+ (“+” means greater than 10 uM)	Cc1cc(C)c(CN2CCc3ccccc3CC2C(=O)NS(=O)(=O)c2ccc[nH]c2=O)c(C)c1 (stereo not shown) [Compound 662, N-[(2-oxo-1H-pyridin-3-yl)sulfonyl]-3-[(2,4,6-trimethylphenyl)methyl]-1,2,4,5-tetrahydro-3-benzazepine-4-carboxamide]
–	+++ (“+++” means <3 uM)	CCc1ccc2c(c1)cc(C(=O)NS(=O)(=O)c1cccc(N)n1)n2Cc1c(C)cc(C)cc1C [Compound 179, N-[(6-amino-2-pyridyl)sulfonyl]-5-ethyl-1-[(2,4,6-trimethylphenyl)methyl]indole-2-carboxamide]
< 3	–	Cc1ccc(F)cc1-c1ccc(C(=O)NS(=O)(=O)N2CC[C@H](N)C2)c(N2C[C@@H](C)CC2(C)C)n1 [Compound 2490, N-[(3S)-3-aminopyrrolidin-1-yl]sulfonyl-6-(5-fluoro-2-methyl-phenyl)-2-[(4S)-2,2,4-trimethylpyrrolidin-1-yl]pyridine-3-carboxamide]
< 3	–	CC1CN(c2ncccc2C(=O)NS(=O)(=O)c2cccc(OC3CC4CCC3(C)C4(C)C)n2)C(C)(C)C1 (stereo not shown) [Compound 2059, N—[[6-(1,7,7-trimethylnorbornan-2-yl)oxy-2-pyridyl]sulfonyl]-2-(2,2,4-trimethylpyrrolidin-1-yl)pyridine-3-carboxamide]
< 3	–	CC1CN(c2ncc(-c3ccc(OC(F)(F)F)cc3)cc2C(=O)NS(=O)(=O)c2cccc(N)n2)C(C)(C)C1 (stereo not shown) [Compound 2649, N-[(6-amino-2-pyridyl)sulfonyl]-5-[4-(trifluoromethoxy)phenyl]-2-(2,2,4-trimethylpyrrolidin-1-yl)pyridine-3-carboxamide]
< 3	–	COc1ccc(-c2ccc(C(=O)NS(=O)(=O)c3ccc[nH]c3=O)c(N3C[C@@H](C)CC3(C)C)n2)cc1C [Compound 2369, 6-(4-methoxy-3-methyl-phenyl)-N-[(2-oxo-1H-pyridin-3-yl)sulfonyl]-2-[(4S)-2,2,4-trimethylpyrrolidin-1-yl]pyridine-3-carboxamide]
< 3	–	COc1ccc(CNc2cccc(S(=O)(=O)NC(=O)c3ccc(C(C)(C)C)nc3N3CC(C)CC3(C)C)n2)cc1 (stereo not shown) [Compound 2712]
–	++ (“++” means between 3 uM and 10 uM)	CCCOc1cc(-c2ccc(C(=O)NS(=O)(=O)c3ccc[nH]c3=O)c(Oc3c(C)cc(C)cc3C)n2)ccc1Cl [Compound 72, 6-(4-chloro-3-propoxy-phenyl)-N-[(2-oxo-1H-pyridin-3-yl)sulfonyl]-2-(2,4,6-trimethylphenoxy)pyridine-3-carboxamide]
< 3	–	CCOCCNc1ncc(-c2ccc(C(=O)NS(=O)(=O)c3cccc(N)n3)c(N3C[C@@H](C)CC3(C)C)n2)cc1C [Compound 2683]
–	+++ (“+++” means <3 uM)	Cc1cc(C)c(CN2Cc3ccccc3C2(C)C(=O)NS(=O)(=O)c2ncccc2O)c(C)c1 (stereo not shown) [Compound 377, N-[(3-hydroxy-2-pyridyl)sulfonyl]-1-methyl-2-[(2,4,6-trimethylphenyl)methyl]isoindoline-1-carboxamide]
–	+++ (“+++” means <3 uM)	Cc1cc(C)c(Oc2nc(C(C)(C)C)ccc2C(=O)NS(=O)(=O)c2cccc(N)n2)c(C)c1 [Compound 228, N-[(6-amino-2-pyridyl)sulfonyl]-6-tert-butyl-2-(2,4,6-trimethylphenoxy)pyridine-3-carboxamide]
–	++ (“++” means between 3 uM and 10 uM)	COCCCc1ccc(C(=O)NS(=O)(=O)c2cccc(N)n2)c(Oc2c(C)cc(C)cc2C)n1 [Compound 791, N-[(6-amino-2-pyridyl)sulfonyl]-6-(3-methoxypropyl)-2-(2,4,6-trimethylphenoxy)pyridine-3-carboxamide]
< 3	–	C[C@@H]1CN(c2nc(C3CCCCO3)ccc2C(=O)NS(=O)(=O)c2cccnc2N)C(C)(C)C1 (stereo partly drawn) [Compound 2351, N-[(2-amino-3-pyridyl)sulfonyl]-6-tetrahydropyran-2-yl-2-[(4S)-2,2,4-trimethylpyrrolidin-1-yl]pyridine-3-carboxamide]
< 3	–	Cc1ccc(F)cc1-c1ccc(C(=O)NS(=O)(=O)c2ccc[nH]c2=O)c(N2C[C@@H](C)CC2(C)C)n1 [Compound 2067, 6-(5-fluoro-2-methyl-phenyl)-N-[(2-oxo-1H-pyridin-3-yl)sulfonyl]-2-[(4S)-2,2,4-trimethylpyrrolidin-1-yl]pyridine-3-carboxamide]
–	+++ (“+++” means <3 uM)	CC(C)Oc1ccc(-c2ccc(C(=O)NS(=O)(=O)c3cccc(N)n3)c(N3CCC(C)C3(C)C)n2)cn1 (stereo not shown) [Compound 464, N-[(6-amino-2-pyridyl)sulfonyl]-6-(6-isopropoxy-3-pyridyl)-2-(2,2,3-trimethylpyrrolidin-1-yl)pyridine-3-carboxamide]
< 3	–	COc1cccc(CCNc2cccc(S(=O)(=O)NC(=O)c3cccnc3N3CC(C)CC3(C)C)n2)c1 (stereo not shown) [Compound 2465, N—[[6-[2-(3-methoxyphenyl)ethylamino]-2-pyridyl]sulfonyl]-2-(2,2,4-trimethylpyrrolidin-1-yl)pyridine-3-carboxamide]
< 3	–	COc1cc(-c2ccc(C(=O)NS(=O)(=O)c3cccnc3N)c(N3C[C@@H](C)CC3(C)C)n2)ccc1F [Compound 2124, N-[(2-amino-3-pyridyl)sulfonyl]-6-(4-fluoro-3-methoxy-phenyl)-2-[(4S)-2,2,4-trimethylpyrrolidin-1-yl]pyridine-3-carboxamide]
< 3	–	CC1CN(c2ncccc2C(=O)NS(=O)(=O)c2cccc(N[C@H](C)C3CCCCC3)n2)C(C)(C)C1 (stereo partly drawn) [Compound 1996, N—[[6-[[(1R)-1-cyclohexylethyl]amino]-2-pyridyl]sulfonyl]-2-(2,2,4-trimethylpyrrolidin-1-yl)pyridine-3-carboxamide]
< 3	–	CCOc1cc(C)cc(-c2ccc(C(=O)NS(=O)(=O)c3cc[nH]n3)c(Oc3c(C)cc(C)cc3C)n2)n1 [Compound 2301, 6-(6-ethoxy-4-methyl-2-pyridyl)-N-(1H-pyrazol-3-ylsulfonyl)-2-(2,4,6-trimethylphenoxy)pyridine-3-carboxamide]
–	+++ (“+++” means <3 uM)	Cc1cccc(C)c1Cn1nc(C(C)(C)C)cc1C(=O)NS(=O)(=O)c1ccc(F)c(N)c1 [Compound 150, N-(3-amino-4-fluoro-phenyl)sulfonyl-5-tert-butyl-2-[(2,6-dimethylphenyl)methyl]pyrazole-3-carboxamide]
–	+++ (“+++” means <3 uM)	Cc1cc(C)cc(-c2nc(C(C)(C)C)ccc2C(=O)NS(=O)(=O)c2cccc(N)c2)c1 [Compound 52, N-(3-aminophenyl)sulfonyl-6-tert-butyl-2-(3,5-dimethylphenyl)pyridine-3-carboxamide]
–	+++ (“+++” means <3 uM)	Cc1ccc(Oc2nc(-c3cc(F)cc(OC(C)C)c3)ccc2C(=O)NS(=O)(=O)c2nccnc2N)c(C)c1 [Compound 559, N-(3-aminopyrazin-2-yl)sulfonyl-2-(2,4-dimethylphenoxy)-6-(3-fluoro-5-isopropoxy-phenyl)pyridine-3-carboxamide]
–	++ (“++” means between 3 uM and 10 uM)	COc1cccnc1S(=O)(=O)NC(=O)c1cc2ccccc2n1Cc1c(C)cc(C)cc1C [Compound 258, N-[(3-methoxy-2-pyridyl)sulfonyl]-1-[(2,4,6-trimethylphenyl)methyl]indole-2-carboxamide]
< 3	–	Cc1ccc2cc(C(=O)NS(=O)(=O)c3cccc(N)n3)c(N3C[C@@H](C)CC3(C)C)nc2c1 [Compound 2519, N-[(6-amino-2-pyridyl)sulfonyl]-7-methyl-2-[(4S)-2,2,4-trimethylpyrrolidin-1-yl]quinoline-3-carboxamide]
–	+++ (“+++” means <3 uM)	Cc1cc(C)c(Cn2nc(C(C)(C)C)cc2C(=O)NS(=O)(=O)c2cccc(N)c2)c(C)c1 [Compound 110, N-(3-aminophenyl)sulfonyl-5-tert-butyl-2-[(2,4,6-trimethylphenyl)methyl]pyrazole-3-carboxamide]
–	+++ (“+++” means <3 uM)	Cc1cc(C)c(Oc2nc(-c3ccc(Cl)c(OC(C)C)c3)ccc2C(=O)NS(=O)(=O)c2cccc(N)n2)c(C)c1 [Compound 281, N-[(6-amino-2-pyridyl)sulfonyl]-6-(4-chloro-3-isopropoxy-phenyl)-2-(2,4,6-trimethylphenoxy)pyridine-3-carboxamide]
< 3	–	CC1CN(c2ncccc2C(=O)NS(=O)(=O)c2cccc(OCCC3CCNCC3)n2)C(C)(C)C1 (stereo not shown) [Compound 2452, N—[[6-[2-(4-piperidyl)ethoxy]-2-pyridyl]sulfonyl]-2-(2,2,4-trimethylpyrrolidin-1-yl)pyridine-3-carboxamide]

SMILES	EC30 [1] [µM]	EC30 [2]
CC(C)COc1cc(F)cc(-c2ccc(C(=O)NS(=O)(=O)C3CCCC3)c(N3C[C@@H](C)CC3(C)C)n2)c1 [Compound 2113, N-cyclopentylsulfonyl-6-(3-fluoro-5-isobutoxy-phenyl)-2-[(4S)-2,2,4-trimethylpyrrolidin-1-yl]pyridine-3-carboxamide]	< 3	–
CC(C)COc1cc(F)cc(-c2ccc(C(=O)NS(=O)(=O)c3cccc(N)n3)c(N3CCCC3C(C)(C)C)n2)c1 (stereo not shown) [Compound 613, N-[(6-amino-2-pyridyl)sulfonyl]-2-(2-tert-butylpyrrolidin-1-yl)-6-(3-fluoro-5-isobutoxy-phenyl)pyridine-3-carboxamide]	–	+++ (“+++” means <3 uM)
CC(C)COc1ccnc(-c2ccc(C(=O)NS(=O)(=O)c3cccc(N)n3)c(N3[C@H](C)CC[C@@H]3C)n2)c1 [Compound 389, N-[(6-amino-2-pyridyl)sulfonyl]-2-[(2S,5R)-2,5-dimethylpyrrolidin-1-yl]-6-(4-isobutoxy-2-pyridyl)pyridine-3-carboxamide]	–	+++ (“+++” means <3 uM)
